Experimental data taken from patent US20130203649A1, “INHIBITORS OF TLR SIGNALING BY TARGETING TIR DOMAIN INTERFACES” (UNIVERSITY OF MARYLAND, BALTIMORE, priority 2012, published 2013).
“Also recorded” adds a separate entry of the source. No end group written: not given here.

Columns and labels:
Assay type in all cases: cell-based
TLR2/TLR6 heterodimer = target: T1, TLR2/TLR6 heterodimer (Mus musculus, UniProt Q9QUN7); assay: P2C-induced cytokine mRNA expression in mouse macrophages; details: P2C 50 ng/ml, 1 h
T1 construct: endogenous in cells; host or cells: thioglycollate-elicited mouse peritoneal macrophages
Description: (§1) Total cellular RNA was isolated using Tripure from Roche (San Francisco, Calif.) following manufacture's protocol. RNA was then reverse transcribed using AMV Reverse Transcriptase from Promega (Madison, Wis.) with poly-T priming as per manufacturer's directions. cDNA was then quantified by real-time PCR using Applied Biosystems Fast SYBR Green PCR Master Mix and an ABI Prism 7500HT cycler. Primers used for detection: hypoxanthine phosphoribosyltransferase (HPRT) (forward: […] (SEQ ID NO:51), reverse: […] (SEQ ID NO:52)), TNFα (forward: […] (SEQ ID NO:53), reverse: […] (SEQ ID NO:54)), IL-1β (forward: […] (SEQ ID NO:55), reverse: […] (SEQ ID NO:56)), IFNβ (forward: […] (SEQ ID NO:57), reverse: CTCGGACCACCATCCAGG (SEQ ID NO:58)) and RANTES (forward: […] (SEQ ID NO:59), reverse: […] (SEQ ID NO:60)). The primers were designed using Primer Express 2.0 (Applied Biosystems). Using HPRT as reference, the ΔCt method was used to calculate relative gene expression. One-way ANOVA was preformed, as well as Dunnett's multiple comparison post hoc test with a p≦0.01 selected as the level of significance.
(§2) Protein-free Escherichia coli K235 LPS was used at final concentration of 10 ng/ml to stimulate cells. S-[2,3-bis(palmitoyloxy)-(2-RS)-propyl]-N-palmitoyl-(R)-Cys-Ser-Lys4-OH (P3C) and S-[2,3-bis(palmitoyloxy)-(2-RS)-propyl]-[R]-Cys-Ser-Lys4-OH (P2C) were purchased from EMC microcollections GmbH (Tubingen, Germany) and used for cell stimulation at 500 and 50 ng/ml, respectively. Phospho-ERK1/2 and phospho-JNK1/2 rabbit Abs were obtained from Cell Signaling Technology, Inc. β-actin rabbit Ab were from SantaCruz Biotechnology, Inc.
(§3) Because of the role TRAP plays in TLR2 signaling, TIRAP TIR-derived decoy peptide effects on TLR2-induced cytokine mRNA expression were examined. Thioglycollate-elicited mouse macrophages were stimulated either by P2C, an agonist that induces signaling through TLR2/TLR6 heterodimerization, or P3C, a TLR2/TLR1 agonist, and effects of TIRAP TR-derived decoy peptides on induction of cytokine mRNA were examined. […] To confirm the inhibitory effect of TR3 and TR6 on P3C-induced signaling, IL-6 and TNF-α concentration was measured in macrophage supernatants collected 5 h after stimulation of cells with P3C. […] Concordantly, both TR3 and TR6 diminished the P3C-induced ERK phosphorylation (FIG. 3D).
(§4) C57BL/6J mice were obtained from The Jackson Laboratory (BarHarbor, Me.). Harvesting, culturing, and stimulation of peritoneal macrophages were described in previous publications (1, 18, 19). Escherichia coli K235 LPS (34) was used at the final concentration of 100 ng/ml. The 2,3-bis(palmitoyloxy)-(2-RS)-propyl-N-palmitoyl-(R)-Cys-Ser-Lys4-OH (P3C) and S[2,3-bis(palmitoyloxy)-(2-RS)-propyl]-[R]-Cys-Ser-Lys4-OH (P2C) (EMC Microcollections, Tubingen, Germany) were used at 500 and 50 ng/ml, respectively. Oligonucleotide (ODN) 1668 and low m.w. polyinosinic-polycytidylic acid [poly(I:C)] in complex with LyoVec were obtained from InvivoGen; these agonists were used at 2.5 μM and 400 ng/ml, respectively.

TLR2/TLR1 heterodimer [1] = target: T2, TLR2/TLR1 heterodimer (Mus musculus, UniProt Q9QUN7); assay: P3C-induced cytokine mRNA expression in mouse macrophages; details: P3C 500 ng/ml, 1 h
T2 construct: endogenous in cells; host or cells: thioglycollate-elicited mouse peritoneal macrophages
Description: as §1, §2, §3, §4

TLR2/TLR1 heterodimer [2] = target: T2, TLR2/TLR1 heterodimer; assay: P3C-induced IL-6 and TNF-α secretion by macrophages (ELISA); details: supernatants 5 h after P3C 500 ng/ml
Description: (§5) FIG. 3. Effect of TIRAP decoy peptides on TLR2 signaling. Thioglycollate-elicited macrophages were incubated in the presence of 20 (black columns) or 40 μM (open columns) of a decoy peptide for 30 min prior to stimulation with P3C (500 ng/ml) (A and C) or P2C (50 ng/ml) (B). Cytokine mRNA expression was measured 1 h after TLR2 stimulation and is normalized to the expression of HPRT gene. C. IL-6 and TNF-α were measured by ELISA in macrophage supernatants collected 5 h after P3C (500 ng/ml) stimulation. D. Peptides TR3 and TR6 inhibit ERK activation induced by TLR2 agonist, P3C. ERK phosphorylation was measured by Western analysis in primary macrophage stimulated by P3C for 30 min.
Cytokine secretion was measured in supernatant samples collected at 6 or 24 h time points and stored at −80° C. Samples were analyzed by a multiplex assay at the University of Maryland Baltimore Cytokine Core Facility using a Luminex 100 reader and Softmax Pro software, or by ELISA kits for mouse IL-6 or TNF-α from BioLegend (San Diego, Calif.) and LT-4000 microplate reader.
(§6) Because of the role TRAP plays in TLR2 signaling, TIRAP TIR-derived decoy peptide effects on TLR2-induced cytokine mRNA expression were examined. […] To confirm the inhibitory effect of TR3 and TR6 on P3C-induced signaling, IL-6 and TNF-α concentration was measured in macrophage supernatants collected 5 h after stimulation of cells with P3C. […]

TLR2/TLR1 heterodimer [3] = target: T2, TLR2/TLR1 heterodimer; assay: P3C-induced ERK phosphorylation in primary macrophages (Western analysis); details: P3C 30 min
Description: as §5
Cellular protein extracts were isolated by addition of 240 μL per well cold lysate buffer (20 mM Tris, 50 mM NaCl, 1.5 mM MgCl2, 2 mM EDTA, 10 mM NaF, 2 Mm DTT, 1 mM Na3VO4, 1% Triton). Cells were incubated with lysis solution for 30 min on agitator at 4° C. […] After quantification using BioRad protein assay, protein samples were added to Laemmli buffer and then boiled for 10 min. […]
as §6

T2 sequence (Q9QUN7 25-784, one chain of several): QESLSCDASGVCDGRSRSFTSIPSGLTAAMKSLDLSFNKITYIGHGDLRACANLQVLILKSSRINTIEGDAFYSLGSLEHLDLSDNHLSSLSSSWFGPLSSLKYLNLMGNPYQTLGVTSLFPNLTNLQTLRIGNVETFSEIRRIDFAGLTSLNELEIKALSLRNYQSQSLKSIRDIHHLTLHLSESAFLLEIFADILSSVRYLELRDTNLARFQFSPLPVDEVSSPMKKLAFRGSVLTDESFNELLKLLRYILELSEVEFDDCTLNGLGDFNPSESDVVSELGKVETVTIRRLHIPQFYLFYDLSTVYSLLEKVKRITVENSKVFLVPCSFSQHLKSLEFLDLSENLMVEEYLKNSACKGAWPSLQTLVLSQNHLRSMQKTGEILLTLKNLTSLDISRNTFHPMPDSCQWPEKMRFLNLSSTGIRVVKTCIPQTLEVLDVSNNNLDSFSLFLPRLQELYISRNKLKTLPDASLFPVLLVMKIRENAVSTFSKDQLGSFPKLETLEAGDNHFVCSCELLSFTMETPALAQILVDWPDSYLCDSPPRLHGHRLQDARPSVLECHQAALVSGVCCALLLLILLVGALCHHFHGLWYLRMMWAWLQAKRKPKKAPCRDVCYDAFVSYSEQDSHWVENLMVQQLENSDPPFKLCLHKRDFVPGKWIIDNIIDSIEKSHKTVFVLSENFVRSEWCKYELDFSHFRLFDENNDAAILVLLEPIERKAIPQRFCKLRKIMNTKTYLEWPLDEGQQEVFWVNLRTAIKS
T1 sequence (Q9QUN7 25-784, one chain of several): as above

For RQIKIWFQNRRMKWKKEGSQASLRCF [TR3], the “P2C-induced TNFα and IL-1β mRNA” value (TLR2/TLR6 heterodimer; 20 μM peptide) was “significantly less”, the “P2C-induced TNFα and IL-1β mRNA” value (TLR2/TLR6 heterodimer; 40 μM peptide) was “did not affect significantly” and the “P3C-induced TNFα and IL-1β mRNA” value (TLR2/TLR1 heterodimer [1]; 20 μM peptide) was “inhibited”. For the same sequence, the “P3C-induced TNFα and IL-1β mRNA” value (TLR2/TLR1 heterodimer [1]; 40 μM peptide) was “profoundly inhibited”, the “P3C-induced IL-6 and TNF-α secretion” value (TLR2/TLR1 heterodimer [2]) was “profoundly inhibited” and the “P3C-induced ERK phosphorylation” value (TLR2/TLR1 heterodimer [3]) was “diminished; also recorded: inhibit”.
For RQIKIWFQNRRMKWKKPGFLRDPWCKYQML [TR6], the “P2C-induced TNFα and IL-1β mRNA” value (TLR2/TLR6 heterodimer; 20 μM peptide) was “significantly less”, the “P2C-induced TNFα and IL-1β mRNA” value (TLR2/TLR6 heterodimer; 40 μM peptide) was “did not affect significantly” and the “P3C-induced TNFα and IL-1β mRNA” value (TLR2/TLR1 heterodimer [1]; 20 μM peptide) was “inhibited”. The “P3C-induced TNFα and IL-1β mRNA” value (TLR2/TLR1 heterodimer [1]; 40 μM peptide) was “profoundly inhibited”, the “P3C-induced IL-6 and TNF-α secretion” value (TLR2/TLR1 heterodimer [2]) was “profoundly inhibited” and the “P3C-induced ERK phosphorylation” value (TLR2/TLR1 heterodimer [3]) was “diminished; also recorded: inhibit”.
